system: HCV pseudoparticles, genotype 1a HCV E1 and E2 envelope (H77C isolate); experiment: HCV pseudoparticle infection assay (luciferase reporter, Huh7 cells); assay type: cell-based; conditions: Hepatitis C virus, Huh-7, 48 h, read-out: EC50 (nM) 1a (H77C), class symbol, HCV pseudoparticles genotype 1a (H77C), luciferase 2 days after infection

| Compound | EC50 |
| --- | --- |
| CC(C)OC(=O)N1CCCCOc2ccc(cc2)CNc2nc(nc(OCC(F)(F)F)n2)Nc2ccc(cc2)C(=O)NCCC1 [Example 4025] | 0.1 to 100 nM |
| CC(C)(C)OC(=O)N1CCCCOc2ccc(cc2)CNc2nc(nc(OCC(F)(F)F)n2)Nc2ccc(cc2)C(=O)NCCC1 [Example 4026] | 0.1 to 100 nM |
| CNC(=O)N1CCCCOc2ccc(cc2)CNc2nc(nc(OCC(F)(F)F)n2)Nc2ccc(cc2)C(=O)NCCC1 [Example 4030] | 0.1 to 100 nM |
| CCNC(=O)N1CCCCOc2ccc(cc2)CNc2nc(nc(OCC(F)(F)F)n2)Nc2ccc(cc2)C(=O)NCCC1 [Example 4031] | 0.1 to 100 nM |
| CC(C)NC(=O)N1CCCCOc2ccc(cc2)CNc2nc(nc(OCC(F)(F)F)n2)Nc2ccc(cc2)C(=O)NCCC1 [Example 4032] | 0.1 to 100 nM |
| CC(C)(C)NC(=O)N1CCCCOc2ccc(cc2)CNc2nc(nc(OCC(F)(F)F)n2)Nc2ccc(cc2)C(=O)NCCC1 [Example 4034] | 0.1 to 100 nM |
| COCC(=O)N1CCCCNC(=O)c2ccc(cc2)Nc2nc(nc(OCC(F)(F)F)n2)NCc2ccc(cc2)OCC1 [Example 4035] | 0.1 to 100 nM |
| CNC(=O)N1CCCCNC(=O)c2ccc(cc2)Nc2nc(nc(OCC(F)(F)F)n2)NC2(CC2)c2ccc(cc2)OCCC1 [Example 5004] | 0.1 to 100 nM |
| CC(C)(C)OC(=O)N1CCCCNC(=O)c2ccc(cc2)Nc2nc(nc(OCC(F)(F)F)n2)NC2(CC2)c2ccc(cc2)OCCC1 [Example 5006] | 0.1 to 100 nM |
| CC(C)(C)OC(=O)N1CCCOc2ccc(cc2)CNc2nc(nc(OCC(F)(F)F)n2)Nc2ccc(cc2)C(=O)NCC1 [Example 6002] | 0.1 to 100 nM |
| COC(=O)N1CCCOc2ccc(cc2)CNc2nc(nc(OCC(F)(F)F)n2)Nc2ccc(cc2)C(=O)NCC1 [Example 6006] | 0.1 to 100 nM |
| O=C1NCCCNCCCOc2ccc(cc2)CNc2nc(nc(OCC(F)(F)F)n2)Nc2ccc1cc2 [Example 6011] | 0.1 to 100 nM |
| CCNC(=O)N1CCCNC(=O)c2ccc(cc2)Nc2nc(nc(OCC(F)(F)F)n2)NCc2ccc(cc2)OCCC1 [Example 6012] | 0.1 to 100 nM |
| COC(=O)N1CCCNC(=O)c2ccc(cc2)Nc2nc(nc(OCC(F)(F)F)n2)NCc2ccc(cc2)OCCC1 [Example 6014] | 0.1 to 100 nM |
| CCOC(=O)N1CCCNC(=O)c2ccc(cc2)Nc2nc(nc(OCC(F)(F)F)n2)NCc2ccc(cc2)OCCC1 [Example 6015] | 0.1 to 100 nM |
| CCCOC(=O)N1CCCNC(=O)c2ccc(cc2)Nc2nc(nc(OCC(F)(F)F)n2)NCc2ccc(cc2)OCCC1 [Example 6016] | 0.1 to 100 nM |
| CC(C)(C)OC(=O)N1CCCNC(=O)c2ccc(cc2)Nc2nc(nc(OCC(F)(F)F)n2)NCc2ccc(cc2)OCCC1 [Example 6017] | 0.1 to 100 nM |
| CN1CCCNC(=O)c2ccc(cc2)Nc2nc(nc(OCC(F)(F)F)n2)NCc2ccc(cc2)OCCC1 [Example 6018] | 0.1 to 100 nM |
| CCCCN1CCCNC(=O)c2ccc(cc2)Nc2nc(nc(OCC(F)(F)F)n2)NCc2ccc(cc2)OCCC1 [Example 6019] | 0.1 to 100 nM |
| CC(C)CN1CCCNC(=O)c2ccc(cc2)Nc2nc(nc(OCC(F)(F)F)n2)NCc2ccc(cc2)OCCC1 [Example 6020] | 0.1 to 100 nM |
| CNC(=O)N1CCCCNC(=O)c2ccc(cc2)Nc2nc(nc(OCC(F)(F)F)n2)NCc2ccc(cc2)OCCC1 [Example 6021] | 0.1 to 100 nM |
| CCNC(=O)N1CCCCNC(=O)c2ccc(cc2)Nc2nc(nc(OCC(F)(F)F)n2)NCc2ccc(cc2)OCCC1 [Example 6022] | 0.1 to 100 nM |

| Compound | EC50 |
| --- | --- |
| CC(C)(C)NC(=O)N1CCCCNC(=O)c2ccc(cc2)Nc2nc(nc(OCC(F)(F)F)n2)NCc2ccc(cc2)OCCC1 [Example 6023] | 0.1 to 100 nM |
| CC1(C)CNCCCOc2ccc(cc2)CNc2nc(nc(OCC(F)(F)F)n2)Nc2ccc(cc2)C(=O)NC1 [Example 6024] | 0.1 to 100 nM |
| CC(C)N1CCCNC(=O)c2ccc(cc2)Nc2nc(nc(OCC(F)(F)F)n2)NCc2ccc(cc2)OCCC1 [Example 6025] | 0.1 to 100 nM |
| CCN1CCCNC(=O)c2ccc(cc2)Nc2nc(nc(OCC(F)(F)F)n2)NCc2ccc(cc2)OCCC1 [Example 6026] | 0.1 to 100 nM |
| CCCN1CCCNC(=O)c2ccc(cc2)Nc2nc(nc(OCC(F)(F)F)n2)NCc2ccc(cc2)OCCC1 [Example 6027] | 0.1 to 100 nM |
| CCNC(=O)N1CCCOc2ccc(cc2)CNc2nc(nc(OCC(F)(F)F)n2)Nc2ccc(cc2)C(=O)NCC(C)(C)C1 [Example 6028] | 0.1 to 100 nM |
| CCCNC(=O)N1CCCOc2ccc(cc2)CNc2nc(nc(OCC(F)(F)F)n2)Nc2ccc(cc2)C(=O)NCC(C)(C)C1 [Example 6030] | 0.1 to 100 nM |
| CC1(C)CNC(=O)c2ccc(cc2)Nc2nc(nc(OCC(F)(F)F)n2)NCc2ccc(cc2)OCCCN(C(=O)NC(C)(C)C)C1 [Example 6031] | 0.1 to 100 nM |
| COC(=O)N1CCCOc2ccc(cc2)CNc2nc(nc(OCC(F)(F)F)n2)Nc2ccc(cc2)C(=O)NCC(C)(C)C1 [Example 6032] | 0.1 to 100 nM |
| CCCOC(=O)N1CCCOc2ccc(cc2)CNc2nc(nc(OCC(F)(F)F)n2)Nc2ccc(cc2)C(=O)NCC(C)(C)C1 [Example 6034] | 0.1 to 100 nM |
| CC(C)OC(=O)N1CCCOc2ccc(cc2)CNc2nc(nc(OCC(F)(F)F)n2)Nc2ccc(cc2)C(=O)NCC(C)(C)C1 [Example 6035] | 0.1 to 100 nM |
| CC1(C)CNC(=O)c2ccc(cc2)Nc2nc(nc(OCC(F)(F)F)n2)NCc2ccc(cc2)OCCCN(C(=O)OC(C)(C)C)C1 [Example 6036] | 0.1 to 100 nM |
| CC(C)NC(=O)N1CCCOc2ccc(cc2)CNc2nc(nc(OCC(F)(F)F)n2)Nc2ccc(cc2)C(=O)NCC(C)(C)C1 [Example 6037] | 0.1 to 100 nM |
| CNC(=O)N1CCCOc2ccc(cc2)CNc2nc(nc(OCC(F)(F)F)n2)Nc2ccc(cc2)C(=O)NCC(C)(C)C1 [Example 6038] | 0.1 to 100 nM |
| CN1CCCOc2ccc(cc2)CNc2nc(nc(OCC(F)(F)F)n2)Nc2ccc(cc2)C(=O)NCC(C)(C)C1 [Example 6040] | 0.1 to 100 nM |
| CCN1CCCOc2ccc(cc2)CNc2nc(nc(OCC(F)(F)F)n2)Nc2ccc(cc2)C(=O)NCC(C)(C)C1 [Example 6041] | 0.1 to 100 nM |
| COC(=O)N1CCCCCCCCNc2nc(nc(OCC(F)(F)F)n2)Nc2ccc(cc2)C(=O)NCCC1 [Example 9003] | 0.1 to 100 nM |
| CCCOC(=O)N1CCCCCCCCNc2nc(nc(OCC(F)(F)F)n2)Nc2ccc(cc2)C(=O)NCCC1 [Example 9004] | 0.1 to 100 nM |
| CNC(=O)N1CCCCCCCCNc2nc(nc(OCC(F)(F)F)n2)Nc2ccc(cc2)C(=O)NCCC1 [Example 9006] | 0.1 to 100 nM |
| CC(C)(C)NC(=O)N1CCCCCCCCNc2nc(nc(OCC(F)(F)F)n2)Nc2ccc(cc2)C(=O)NCCC1 [Example 9008] | 0.1 to 100 nM |
| CC(=O)N1CCCCCCCCNc2nc(nc(OCC(F)(F)F)n2)Nc2ccc(cc2)C(=O)NCCC1 [Example 9009] | 0.1 to 100 nM |

same assay, conditions: Hepatitis C virus, Huh-7, 48 h, read-out: EC50 (nM) 1a (H77C), numeric value, HCV pseudoparticles genotype 1a (H77C), luciferase 2 days after infection

| Compound | EC50 |
| --- | --- |
| COCC(=O)N1CCCCNC(=O)c2ccc(cc2)Nc2nc(nc(OCC(F)(F)F)n2)NCc2ccc(cc2)OCC1 [Example 4035] | 4.37 nM |
| CCNC(=O)N1CCCNC(=O)c2ccc(cc2)Nc2nc(nc(OCC(F)(F)F)n2)NCc2ccc(cc2)OCCC1 [Example 6012] | 6.1 nM |
| COC(=O)N1CCCNC(=O)c2ccc(cc2)Nc2nc(nc(OCC(F)(F)F)n2)NCc2ccc(cc2)OCCC1 [Example 6014] | 1.51 nM |
| CCNC(=O)N1CCCCNC(=O)c2ccc(cc2)Nc2nc(nc(OCC(F)(F)F)n2)NCc2ccc(cc2)OCCC1 [Example 6022] | 11.8 nM |

same assay, conditions: class symbol, HCV pseudoparticles genotype 1a (H77C), luciferase 2 days after infection, read-out: EC50 (nM) 1a (H77C)

| Compound | EC50 |
| --- | --- |
| O=C1NCCCNCCCOc2ccc(cc2)C2(CC2)Nc2nc(nc(OCC(F)(F)F)n2)Nc2ccc1cc2 [Example 5001] | 0.1 to 100 nM |
| O=C1NCCCNCCCCCCCCNc2nc(nc(OCC(F)(F)F)n2)Nc2ccc1cc2 [Example 9001] | 100 to 1000 nM |

same assay, conditions: numeric value, HCV pseudoparticles genotype 1a (H77C), luciferase 2 days after infection, read-out: EC50 (nM) 1a (H77C)

| Compound | EC50 |
| --- | --- |
| O=C1NCCCNCCCCCCCCNc2nc(nc(OCC(F)(F)F)n2)Nc2ccc1cc2 [Example 9001] | 243 nM |

— patent EP2697230B1, “COMPOUNDS FOR THE TREATMENT OF HEPATITIS C” (priority 2011, dated 2012)
